Measured values reported in ChEMBL document CHEMBL1201862, “PubChem BioAssay data set” (2004).
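Cultured in 96-well plates, cells were exposed to test compound for 48 hours across five concentrations. At the GI50, growth is halved.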 Calls of active or inactive are those of the source. Rule as the data show it: active = GI50 up to about 1.1 µM and inactive = higher.

What was measured:
Test in all cases: NCI tumour cell line growth inhibition, 48 h
UO-31 = test system: UO-31
SNB-19 = test system: SNB-19
HT-29 = test system: HT-29
CCRF-CEM = test system: CCRF-CEM
SW-620 = test system: SW-620
SF-295 = test system: SF-295
OVCAR-8 = test system: OVCAR-8
U-251 = test system: U-251
SK-OV-3 = test system: SK-OV-3
MOLT-4 = test system: MOLT-4
KM12 = test system: KM12
A549 = test system: A549
K562 = test system: K562
HCT-15 = test system: HCT-15
NCI-H23 = test system: NCI-H23
HL-60 = test system: HL-60
SK-MEL-5 = test system: SK-MEL-5
SN12C = test system: SN12C
SNB-75 = test system: SNB-75
NCI-H460 = test system: NCI-H460

| SMILES | GI50 (UO-31) | GI50 (SNB-19) | GI50 (HT-29) | GI50 (CCRF-CEM) | GI50 (SW-620) | GI50 (SF-295) | GI50 (OVCAR-8) | GI50 (U-251) | GI50 (SK-OV-3) | GI50 (MOLT-4) | GI50 (KM12) | GI50 (A549) | GI50 (K562) | GI50 (HCT-15) [µM] | GI50 (NCI-H23) | GI50 (HL-60) | GI50 (SK-MEL-5) | GI50 (SN12C) | GI50 (SNB-75) | GI50 (NCI-H460) |
| --- | --- | --- | --- | --- | --- | --- | --- | --- | --- | --- | --- | --- | --- | --- | --- | --- | --- | --- | --- | --- |
| c1ccc(CSC2(SCc3ccccc3)CCCC2)cc1 | > 10 µM (inactive) | > 10 µM (inactive) | > 10 µM (inactive) | > 10 µM (inactive) | > 10 µM (inactive) | > 10 µM (inactive) | > 10 µM (inactive) | > 10 µM (inactive) | > 10 µM (inactive) | > 10 µM (inactive) | > 10 µM (inactive) | > 10 µM (inactive) | > 10 µM (inactive) | > 10 | > 10 µM (inactive) | > 10 µM (inactive) | > 10 µM (inactive) | > 10 µM (inactive) | > 10 µM (inactive) | > 10 µM (inactive) |
| CC(=O)OCC1OC(n2c3c(c(-c4ccco4)c(C#N)c2=S)CCC3)C(OC(C)=O)C(OC(C)=O)C1OC(C)=O (stereo not drawn) | 80.7 µM (inactive) | > 100 µM (inactive) | > 100 µM (inactive) | 8.09 µM (inactive) | 55.8 µM (inactive) | > 100 µM (inactive) |  | 54.6 µM (inactive) | > 100 µM (inactive) | 4.42 µM (inactive) | > 100 µM (inactive) | > 100 µM (inactive) | 21.9 µM (inactive) | > 100 | > 100 µM (inactive) | 82.8 µM (inactive) | 31.6 µM (inactive) | > 100 µM (inactive) | 23.4 µM (inactive) | > 100 µM (inactive) |
| C[Si](C)(C)/C=C/CN1C(=O)CCC1=O | > 100 µM (inactive) | > 100 µM (inactive) | > 100 µM (inactive) | > 100 µM (inactive) | > 100 µM (inactive) |  |  | > 100 µM (inactive) | > 100 µM (inactive) | > 10 µM (inactive) | > 100 µM (inactive) | > 100 µM (inactive) | > 100 µM (inactive) | > 100 | > 100 µM (inactive) | > 100 µM (inactive) | > 100 µM (inactive) | > 100 µM (inactive) | 83.2 µM (inactive) | > 100 µM (inactive) |
| C[C@]12CC[C@H]3[C@@H](CCC4=CC(=O)CC[C@@]43C)[C@@H]1CC[C@@H]2C(=O)COS(=O)(=O)c1ccc(Br)cc1 | 1.7 µM (inactive) | 19.5 µM (inactive) | 11.8 µM (inactive) | 0.207 µM (active) | 9.4 µM (inactive) | 19.3 µM (inactive) | 3.61 µM (inactive) | 8.93 µM (inactive) | 15.1 µM (inactive) | 1.41 µM (inactive) | 15.1 µM (inactive) | 18.7 µM (inactive) | 4.09 µM (inactive) | 14.2 | 2.37 µM (inactive) | 4.69 µM (inactive) | 8.77 µM (inactive) | 5.97 µM (inactive) | 17.5 µM (inactive) | 10.1 µM (inactive) |
| Cc1cc(C)n(C(=C(C(Cl)=C(Cl)Cl)[N+](=O)[O-])n2nc(C)cc2C)n1 | 3.18 µM (inactive) | 4.81 µM (inactive) | 3.5 µM (inactive) | 2.16 µM (inactive) | 3.7 µM (inactive) | 3.85 µM (inactive) | 3.06 µM (inactive) | 3.44 µM (inactive) | 3.29 µM (inactive) | 2.37 µM (inactive) | 3.48 µM (inactive) | 3.5 µM (inactive) | 2.02 µM (inactive) | 3.2 | 3.23 µM (inactive) | 1.91 µM (inactive) | 2.13 µM (inactive) | 3.98 µM (inactive) | 6.25 µM (inactive) | 3.52 µM (inactive) |
| CN(/N=C1\C(=O)Nc2ccccc21)c1ccccc1 | 11.8 µM (inactive) | > 100 µM (inactive) | 54.3 µM (inactive) | 58.7 µM (inactive) | > 100 µM (inactive) | 40.7 µM (inactive) | 26.4 µM (inactive) | 74.8 µM (inactive) | > 100 µM (inactive) | 45.2 µM (inactive) | 29.6 µM (inactive) | 72.9 µM (inactive) | > 100 µM (inactive) | 44.2 | 74.6 µM (inactive) | 56.5 µM (inactive) | 32.6 µM (inactive) |  | 2.32 µM (inactive) | 91.8 µM (inactive) |
| Nc1n[c-](N)[n+](=O)c(N)c1NCO | > 100 µM (inactive) | > 100 µM (inactive) | > 100 µM (inactive) | > 100 µM (inactive) | > 100 µM (inactive) | > 100 µM (inactive) | > 100 µM (inactive) | > 100 µM (inactive) | > 100 µM (inactive) | > 100 µM (inactive) | > 100 µM (inactive) | > 100 µM (inactive) | > 100 µM (inactive) | > 100 | > 100 µM (inactive) | > 100 µM (inactive) | > 100 µM (inactive) | > 100 µM (inactive) | > 100 µM (inactive) | > 100 µM (inactive) |
| Cc1cnc(/N=c2\sc(C)cn2-c2ncc(C)s2)s1 | > 100 µM (inactive) | > 100 µM (inactive) | > 100 µM (inactive) | > 100 µM (inactive) | > 100 µM (inactive) | > 100 µM (inactive) | > 100 µM (inactive) | > 100 µM (inactive) | > 100 µM (inactive) | > 100 µM (inactive) | > 100 µM (inactive) | > 100 µM (inactive) | > 100 µM (inactive) | > 100 | > 100 µM (inactive) | > 100 µM (inactive) | > 100 µM (inactive) | > 100 µM (inactive) | 71.3 µM (inactive) | > 100 µM (inactive) |
| O=c1[nH]c(=O)n(C2CC(O)C(CO)O2)cc1C(OCC(F)(F)F)OCC(F)(F)F (stereo not drawn) | > 100 µM (inactive) | > 100 µM (inactive) | > 100 µM (inactive) | 70.8 µM (inactive) | > 100 µM (inactive) | > 100 µM (inactive) | > 100 µM (inactive) | > 100 µM (inactive) | > 100 µM (inactive) | > 100 µM (inactive) | > 100 µM (inactive) | > 100 µM (inactive) | 53.3 µM (inactive) |  | > 100 µM (inactive) | > 100 µM (inactive) | > 100 µM (inactive) | > 100 µM (inactive) | > 100 µM (inactive) | > 100 µM (inactive) |
| ClCC1(CCl)COC1 | > 100 µM (inactive) | > 100 µM (inactive) | > 100 µM (inactive) | > 100 µM (inactive) | > 100 µM (inactive) | > 100 µM (inactive) | > 100 µM (inactive) | > 100 µM (inactive) | > 100 µM (inactive) | > 100 µM (inactive) | > 100 µM (inactive) | > 100 µM (inactive) | > 100 µM (inactive) | > 100 | > 100 µM (inactive) | > 100 µM (inactive) | > 100 µM (inactive) | > 100 µM (inactive) | > 100 µM (inactive) | > 100 µM (inactive) |
| O=C(NN1C(=O)CS(=O)(=O)C1c1ccc(Cl)c(Cl)c1)c1ccncc1 (stereo not drawn) | > 100 µM (inactive) | > 92.3 µM (inactive) | > 71.3 µM (inactive) | 42.1 µM (inactive) | > 100 µM (inactive) | > 87.5 µM (inactive) | > 100 µM (inactive) | > 100 µM (inactive) | 57.5 µM (inactive) | > 40.3 µM (inactive) | > 100 µM (inactive) | > 92.3 µM (inactive) | > 54.2 µM (inactive) | > 100 | > 100 µM (inactive) | > 43 µM (inactive) | > 94.2 µM (inactive) | > 100 µM (inactive) | 54.2 µM (inactive) | > 100 µM (inactive) |
| CN(C)C(=S)/N=c1\ssc(=S)n1C | > 100 µM (inactive) | > 100 µM (inactive) | > 100 µM (inactive) | > 100 µM (inactive) | > 100 µM (inactive) | > 100 µM (inactive) | > 100 µM (inactive) | > 100 µM (inactive) | > 100 µM (inactive) | > 100 µM (inactive) | > 100 µM (inactive) | > 100 µM (inactive) | > 100 µM (inactive) | > 100 | > 100 µM (inactive) | > 100 µM (inactive) | > 100 µM (inactive) | > 100 µM (inactive) | > 100 µM (inactive) | > 100 µM (inactive) |
| CC1(C)OP23(NC(=O)OC2(C(F)(F)F)c2ccccc2O3)OC1(C)C (stereo not drawn) | > 100 µM (inactive) | > 100 µM (inactive) | > 100 µM (inactive) | > 100 µM (inactive) |  | > 100 µM (inactive) | > 100 µM (inactive) | > 100 µM (inactive) | > 100 µM (inactive) | > 100 µM (inactive) | > 100 µM (inactive) | > 100 µM (inactive) | > 100 µM (inactive) | > 100 | > 100 µM (inactive) | > 100 µM (inactive) | > 100 µM (inactive) | > 100 µM (inactive) | > 100 µM (inactive) | > 100 µM (inactive) |
| CC(=O)OC(OC(C)=O)n1cc(C=O)c2ccccc21 | 63.5 µM (inactive) | > 100 µM (inactive) | > 100 µM (inactive) | > 100 µM (inactive) | > 100 µM (inactive) | > 100 µM (inactive) | > 100 µM (inactive) | > 100 µM (inactive) | > 100 µM (inactive) | > 100 µM (inactive) |  | > 100 µM (inactive) | > 100 µM (inactive) | > 100 | > 100 µM (inactive) | > 100 µM (inactive) | > 100 µM (inactive) | > 100 µM (inactive) | > 10 µM (inactive) | > 100 µM (inactive) |
